Experiments:
Assay in all cases: Compound (A) with S-metolachlor, weed plots
Format in all cases: in vivo
[1] = test system: E[…]-GALLI; conditions: 28 DAA, Trial 4.1
Experimental: (§1) In these tests, various weeds were treated with S-metolachlor (SMOC) alone at an application rate equivalent to 1420 g per hectare, Compound (A) alone at rates equivalent to 20 g per hectare and […] and with mixtures of S-metolachlor and the Compound (A) at rates equivalent to the sum of these. The compositions were formulated as an emulsifyable concentrate (EC).
(§2) The results in the table under each application are the percentage of the plants that were killed.

[2] = test system: C[…]
Experimental: as §1, §2

[3] = test system: AMBROSIA TRIFIDA
Experimental: as §1, §2

[4] = test system: SESBANIA EXALTATA; conditions: 56 DAA, Trial 4.2
Experimental: as §1, §2

[5] = test system: AMBROSIA ARTEMISIIFOLIA
Experimental: as §1, §2

[6] = test system: IPOMOEA SP.
Experimental: as §1, §2

Question: How did the “percentage of the plants that were killed” value (from here on “percentage”) ([1]; 20 g/ha) turn out when `CCOC(=O)COc1ncccc1Oc1cc(-n2c(=O)cc(C(F)(F)F)n(C)c2=O)c(F)cc1Cl` [Compound (A)] was run?
Answer: The value was 53%.

Question: What about the “percentage” value ([1]; 40 g/ha) of the same compound?
Answer: The value was 55%.

Question: What about the “percentage” value ([2]; 20 g/ha, 26 DAA, Trial 4.5) of the same compound?
Answer: Its value is 80%.

Question: And the “percentage” value ([2]; 20 g/ha, 54 DAA, Trial 4.6)?
Answer: Its value is 0%.

Question: And the “percentage” value ([2]; 20 g/ha, 56 DAA, Trial 4.11)?
Answer: The value was 0%.

Question: And the “percentage” value ([2]; 40 g/ha, 26 DAA, Trial 4.5)?
Answer: Its value is 80%.

Question: And the “percentage” value ([2]; 40 g/ha, 54 DAA, Trial 4.6)?
Answer: Its value is 44%.

Question: And the “percentage” value ([2]; 40 g/ha, 56 DAA, Trial 4.11)?
Answer: The value was 13%.

Question: And the “percentage” value ([3]; 20 g/ha, 8 DAA, Trial 4.16)?
Answer: The value was 75%.

Question: And the “percentage” value ([3]; 20 g/ha, 42 DAA, Trial 4.15)?
Answer: Its value is 23%.

Question: And the “percentage” value ([3]; 40 g/ha, 8 DAA, Trial 4.16)?
Answer: The value was 95%.

Question: And the “percentage” value ([3]; 40 g/ha, 42 DAA, Trial 4.15)?
Answer: Its value is 38%.

Question: What about the “percentage” value ([4]; 20 g/ha) of the same compound?
Answer: The value was 50%.

Question: What about the “percentage” value ([4]; 40 g/ha) of the same compound?
Answer: The value was 25%.

Question: And the “percentage” value ([5]; 20 g/ha, 25 DAA, Trial 4.7)?
Answer: Its value is 47%.

Question: And the “percentage” value ([5]; 20 g/ha, 49 DAA, Trial 4.8)?
Answer: The value was 30%.

Question: And the “percentage” value ([5]; 40 g/ha, 25 DAA, Trial 4.7)?
Answer: The value was 79%.

Question: What about the “percentage” value ([5]; 40 g/ha, 49 DAA, Trial 4.8) of the same compound?
Answer: The value was 69%.

Question: What about the “percentage” value ([6]; 20 g/ha, 25 DAA, Trial 4.9) of the same compound?
Answer: Its value is 35%.

Question: And the “percentage” value ([6]; 20 g/ha, 49 DAA, Trial 4.10)?
Answer: The value was 20%.

Question: And the “percentage” value ([6]; 40 g/ha, 25 DAA, Trial 4.9)?
Answer: Its value is 65%.

Question: What about the “percentage” value ([6]; 40 g/ha, 49 DAA, Trial 4.10) of the same compound?
Answer: Its value is 60%.
